Laboratory results published in publication PMC9084902, “Low-Molecular Weight Protamine Overcomes Chondroitin Sulfate Inhibition of Neural Regeneration” (Frontiers in Cell and Developmental Biology, 2022).
“Also recorded” adds a separate entry of the source.

Experiments:
hippocampal neurons [1] = assay: neurite outgrowth on aggrecan substrate, hippocampal neurons; format: cell-based, Wistar rat; conditions: 10 μg/ml, n = 3
Procedure: (§1) The cortex or hippocampus were obtained from 17 days-old Wistar rat embryos and transferred to ice-cold preparation solution. Neurons were further isolated exactly as described earlier in Sahu’s publication ([Sahu et al., 2019]). Primary rat cortical or hippocampal neurons (E17 Wistar rats) were cultured in 96-well plates at the density of 20000 cells/well in Neurobasal medium supplemented with B27 serum substitute, penicillin, streptomycin and L-glutamate for 2 days in vitro (DIV). The plates were precoated with aggrecan (5 ug/ml, 150 µl/well). Protamine or protamine peptides were added to the culture medium at different concentrations. To analyze the effect of protamine or its fragment on neurite outgrowth, the plates were coated with 10 μg/ml of protamine or LMWP. For the experiment with chondroitinase, the aggrecan-coated plates were treated with chondroitinase ABC (Amsbio AMS. E1028, lot CF0029) for 4 h followed by 2 times washing with PBS before cell plating, and the cell culture imaging was carried out after 3 DIV incubation with 4 uM LMWP added to the medium. Neurite outgrowth was imaged with phase contrast microscopy (Olympus IX70 microscope and Retiga 2000R digital camera) using both x10 and x20 objectives. Processes of neurons over the diameter of the neuronal soma were interpreted as neurites. Neurite length was measured with ImageJ software and averaged from 2 to 3 independent experiments with 1–2 technical replicas in each independent experiment.

hippocampal neurons [2] = assay: neurite outgrowth on precoated plastic without aggrecan, hippocampal neurons; format: cell-based, Wistar rat; conditions: precoated 10 μg/ml on plastic, no aggrecan, 2 days; about 70 neurons/replicate; p < 0.0001, n = 7
Procedure: as §1, with “Processes of neurons over the diameter of the neuronal soma were interpreted as neurites.” left out

[3] = system: PTPσ ectodomain binding to aggrecan; assay: solid phase binding of wild-type PTPσ ectodomain to aggrecan, competition by LMWP
Description: The N-terminal extracellular part of PTPσ (protein tyrosine phosphatase sigma; PTPRS) that contains the three Ig domains (amino acids 1-321) and mediates CSPG binding ([Shen et al., 2009]) was cloned using the PTPσ cDNA kindly provided by Dr. John Flanagan (Harvard University). The PTPσ mutant lacking the CS binding site in the Ig1 domain was produced as described ([Shen et al., 2009]). The recombinants were produced as Fc-tagged proteins in 293T HEK cells and purified on protein A Sepharose.
The competition assay for LMWP in binding of PTPσ to aggrecan was done in a similar way as earlier ([Paveliev et al., 2016]). Briefly, after overnight coating with 10 μg/ml aggrecan (150 ul/well) at 4°C 96-well tissue culture plates (Nunc) were washed two times with 0.05% Tween-20 in PBS and were blocked for 1 h at room temperature with 1%BSA and 0.05% Tween-20 in PBS. The recombinant wild type PTPσ ectodomain or the mutated ectodomain lacking CS binding (80 nM) were mixed with different concentrations of LMWP in 1% BSA and 0.05% Tween-20 in PBS, and were incubated in the plates overnight at 4°C. After washing with 0.05% Tween20 (3 times, room temperature), the wells were incubated for 1 h (room temperature) with HRP conjugated goat anti-human FC part of IgG (1:5000, in 1% BSA and 0.05% Tween20 PBS) to detect the bound PTPσ. […]

[4] = system: mouse cervical hemisection model; assay: cylinder test, C5 hemisection, ICV delivery; format: in vivo, C57BL6/NHsd mouse; conditions: n = 5–10
Procedure: (§2) The mouse was placed into the glass cylinder of 13 cm in diameter and 15 cm high. A mirror was positioned at the angle behind the cylinder for better observation. The mouse was videotaped for the first 20 exploratory vertical rearings or for 5 min. The number of rearings in which the mouse used the right (impaired), the left or both limbs for support against the wall was measured. Paw preference was calculated as the ratio of total number of left limb use (left + both) to total number of right (impaired) limb use (right + both). A trial with less than 5 rearings within 5 min was excluded from the analysis.

[5] = system: mouse cervical hemicontusion model; assay: cylinder test, C5 hemicontusion, ICV delivery; format: in vivo, C57BL6/NHsd mouse; conditions: ICV LMWP; weeks 4, 6 and 8; n = 6–11
Procedure: as §2

[6] = system: mouse cervical hemicontusion model; assay: cylinder test, C5 hemicontusion, subcutaneous delivery; format: in vivo, C57BL6/NHsd mouse; conditions: 16 µg s.c. daily 49 days; n = 7–13; difference not statistically significant
Procedure: (§3) The effectiveness of systemically delivered LMWP in treatment of spinal cord trauma was tested in the cervical hemicontusion model (Figure 1B). Baseline behavior was assessed 1 week before the trauma surgery, and the results were used for balanced distribution of animals to the 3 experimental groups (“sham”, “trauma + PBS” and “trauma + LMWP”). Each housing cage contained animals from all three groups. Subcutaneous injections to the back area were started on the next day after the trauma and continued daily for 49 days. LMWP was injected subcutaneously at the 16 µg dose in 200 µl of sterile PBS. The groups “sham” and “trauma + PBS” got the same volume of PBS. Behavioral assessment was started 2 weeks after the trauma and finished at the week 12.
as §2

[7] = system: mouse cervical hemicontusion model; assay: frontpaw grip strength, C5 hemicontusion, subcutaneous delivery; format: in vivo, C57BL6/NHsd mouse; conditions: 16 µg s.c. daily 49 days
Procedure: as §3

[8] = ICV LMWP 4 µl of 1 mg/ml daily, 6 days from day 3

Q: With “VSRRRRRRGGRRRR [LMWP, low-molecular weight protamine]” as the sequence, how does the “reversal of the inhibitory effect of aggrecan on neurite outgrowth (comparison among fragments)” value (hippocampal neurons [1]; hippocampal neurons (E17 rat), 2 days on aggrecan, precoated with aggrecan or soluble in medium, about 70 neurons/replicate, normalized to control, Figure 2L) read?
A: more effective in reversing the inhibitory effect of aggrecan than the 22 amino acid fragment or the full-length protamine

Q: And the “length of the longest neurite, versus uncoated control” value (hippocampal neurons [1]; precoated with aggrecan, 2 days, 10 neurons per condition per experiment, Supplementary Figure S1B,E)?
A: slightly reduces the length of the longest neurite

Q: What about the “increase in number of branches” value (hippocampal neurons [1]; precoated with aggrecan, 2 days, 10 neurons per condition per experiment, Supplementary Figure S1C,F) of the same sequence?
A: 3 fold

Q: And the total neurite length (hippocampal neurons [1]; precoated with aggrecan, 2 days, Figure 2 and Supplementary Figure S1A,D)?
A: increase in the total neurite length

Q: And the “total neurite length versus uncoated control” value (hippocampal neurons [2])?
A: increased the total neurite length as compared to the parallel control cultures

Q: And the “inhibition of PTPσ binding to aggrecan” value ([3]; 80 nM PTPσ-Fc, 10 μg/ml aggrecan coating, increasing LMWP, overnight 4°C, HRP anti-Fc/OPD 492 nm, n = 3, Figure 5C)?
A: progressively decreased by increasing LMWP concentrations; also recorded: clearly inhibited PTPσ binding to aggrecan in a similar manner as HB-GAM

Q: And the “similarity of LMWP to mutated PTPσ in binding suppression” value ([3]; aggrecan substrate, increasing LMWP concentrations)?
A: mimicked the binding suppression effect seen with the mutated PTPσ

Q: What about the “front paw use asymmetry (injured versus non-injured side)” value [4, 8] of the same sequence?
A: reduction of front paw use asymmetry at the weeks 2, 4, 8 and 9 after the trauma; also recorded: less asymmetry in frontpaw use when the injured side was compared to the non-injured side

Q: And the ipsilateral paw use [4, 8]?
A: partially improved the ipsilateral paw use

Q: And the “ipsilateral paw use versus sham” value ([4]; ICV LMWP, week 2 p = 0.4201, week 4 p = 0.2766, week 8 p = 0.1092, week 9 p = 0.1659, PBS group differed from sham at all weeks)?
A: not significantly different from the sham animals

Q: What about the “ipsilateral front paw use versus sham” value [5] of the same sequence?
A: reduction in front paw use asymmetry starting from the week 4 after the trauma; also recorded: not significantly different from the sham group on the weeks 4, 6 and 8 after the trauma

Q: And the “front paw use asymmetry versus PBS” value [6]?
A: tendency for better improvement of the LMWP group compared to the PBS group although the difference was not statistically significant

Q: What about the “grip strength versus PBS” value ([7]; week 6 p = 0.0449, week 9 p = 0.0221, one-way ANOVA with Tukey's) of the same sequence?
A: significantly increased grip strength parameters on the week 6 and the week 12; also recorded: significant increase of frontpaw grip strength in comparison with the PBS-treated animals on the weeks 6 and 9

Q: What about the “grip strength versus PBS, week 12” value ([7]; week 12 p = 0.0558, one-way ANOVA with Tukey's) of the same sequence?
A: trend towards increased grip strength on the week 12
